Assay results: patent US12122803B2, “Crystalline forms of a neuroactive steroid” (priority 2021, dated 2024)

Key:
Assay type in all cases: physicochemical
[1] = Competitive slurry experiments of Form S1 and Form S4; settings: IPA, approximately equal amounts of Form S1 and Form S4
Protocol: To verify the transition temperature between Form S1 and Form S4 of Compound (1) calculated from the DSC data, competitive slurry experiments of Form S1 and Form S4 were performed.
In each experiment, slurries were generated using approximately equal amounts of Form S1 and Form S4. The forms were suspended in 0.3 mL of solvent in a 1.5 mL glass vial. […] The remaining solids were isolated via centrifugation (10000 rpm, 3 min) and analyzed using the XPRD analysis method described above.

[2] = Dynamic vapor sorption (DVS) analysis; settings: for hygroscopicity by DVS / mass uptake by DVS / mass uptake by DVS expressed as equivalents of water: 25° C.; for hygroscopicity by DVS: up to 90% RH; for change of the XRPD pattern of the sample following the DVS analysis: after two sorption/desorption cycles at 25° C.; for mass uptake by DVS / mass uptake by DVS expressed as equivalents of water: at 90% RH
Protocol: Approximately 10-20 mg of sample was placed into a mesh vapor sorption balance pan and loaded into a DVS Intrinsic/Advantage dynamic vapor sorption balance by Surface Measurement Systems. The sample was subjected to a ramping profile from 40-90% relative humidity (RH) at 10% increments, maintaining the sample at each step until a stable weight had been achieved (dm/dt 0.004%, minimum step length 30 minutes, maximum step length 500 minutes) at 25° C. After completion of the sorption cycle, the sample was dried using the same procedure to 0% RH and then a second sorption cycle back to 40% RH. Two cycles were performed. The weight change during the sorption/desorption cycles were plotted, allowing for the hygroscopic nature of the sample to be determined. XRPD analysis was then carried out on any solid retained. The microbalance was calibrated monthly using a certified calibration weight and the relative humidity at 25° C. was calibrated against deliquescence point of LiCl, MgCl and NaCl. Data were not corrected for the initial water content of the sample, and data were shown according to the dry mass of the sample at 0% RH.

[3] = DSC analysis (form conversion under heating); settings: TGA/DSC heating
Protocol: (§1) TGA data were collected using a TA Q500 TGA from TA Instruments, and DSC was conducted using a TA Q2000 DSC from TA Instruments. The TGA was calibrated with a nickel reference standard and the DSC was calibrated with an indium reference standard.

TGA analysis = settings: up to 185° C., heating rate 10° C./min
Protocol: as §1

Compound | Results: solid form remaining after competitive slurry (XRPD) ([1]; 60 ° C., time point 1 hr) | Results: solid form remaining after competitive slurry (XRPD) ([1]; 70 ° C., time point 1 hr) | Results: solid form remaining after competitive slurry (XRPD) ([1]; 80 ° C., time point not given) | hygroscopicity by DVS [2] | change of the XRPD pattern of the sample following the DVS analysis [2] | mass uptake by DVS [2] | mass uptake by DVS expressed as equivalents of water [2] [eq. water] | form conversion under heating conditions (thermal analyses) [3] | weight loss on the TGA curve (TGA analysis) [%]
COC[C@@]1(O)CC[C@H]2[C@@H](CC[C@@H]3[C@@H]2CC[C@]2(C)[C@@H](C(=O)Cn4nnc(C)n4)CC[C@@H]32)C1 [Form S1 and Form S4] | Form S1 | Form S1 | Form S4 |  |  |  |  |  | 
COC[C@@]1(O)CC[C@H]2[C@@H](CC[C@@H]3[C@@H]2CC[C@]2(C)[C@@H](C(=O)Cn4nnc(C)n4)CC[C@@H]32)C1 [Form S1] |  |  | converted to Form S4 | substantially non-hygroscopic | No change | ca. 0.6 wt. % | 0.14 | converts to Form S4 | 0.1
COC[C@@]1(O)CC[C@H]2[C@@H](CC[C@@H]3[C@@H]2CC[C@]2(C)[C@@H](C(=O)Cn4nnc(C)n4)CC[C@@H]32)C1 [Form S4] | converted to Form S1 | converted to Form S1 |  | non-hygroscopic | No change | ca. 0.12 wt. % | 0.02 |  | 0.1
